In ChEMBL document CHEMBL1201862, “PubChem BioAssay data set” (2004):
Values belong to the molecule of their own block, whether it stands above or below them. Active and inactive are the calls of the source. For most assays here, no stated cut-off is given here; in the data, actives have a measured IC50 and inactives only a lower limit.

What was measured:
[1] = molecular target: Trypsin (Sus scrofa, UniProt P00761); experiment: trypsin protease activity blockade – biochemical, quenched peptide fluorescence, cherry-pick, selectivity assay for Rce1 protease inhibitor project, dose response (AID 488789)
[2] = blockade of melanocortin 4 receptor signaling – cell-based, plate reader, cherry pick, counter-screen for LGR2 antagonist project, dose response (AID 743444); format: functional;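 further: transfected HEK 293 cells stimulated with alpha-MSH peptide; potency of inhibitors of the alpha-MSH evoked signal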
[3] = blockers of bursicon-stimulated LGR2 cAMP reporter – cell-based, HEK293, CRE-luciferase reporter, cherry pick, set 2, dose response (AID 743343); format: functional;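 further: transfected cells were stimulated with diluted bursicon conditioned medium after compound addition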
[4] = tested on: HEK293; experiment: cells; format: functional, cell-based; conditions: Homo sapiens
[5] = tested on: HEK293; experiment: cells; conditions: Homo sapiens
[6] = tested on: HEK293; experiment: NOD2 signaling inhibitors in MDP-stimulated cells, cell-based, uHTS, luminescence (AID 2001); format: functional; conditions: Homo sapiens
[7] = tested on: HEK293; experiment: cells; format: functional, cell-based; conditions: Homo sapiens; remark: listed apart in the source
[8] = molecular target: Nucleotide-binding oligomerization domain-containing protein 2 (Homo sapiens, UniProt Q9HC29); experiment: inhibition of NOD2-driven NF-kB reporter – cell-based, luminescence, uHTS, HEK293 (AID 1566); format: functional
[9] = tested on: HEK293; experiment: inhibition of NOD1-driven NF-kB reporter – cell-based, luminescence, uHTS, primary screen (AID 1578); format: functional; conditions: Homo sapiens
[10] = tested on: HEK293; experiment: cells; format: functional, cell-based; conditions: Homo sapiens; remark: listed apart in the source
[11] = molecular target: Tumor necrosis factor (Homo sapiens, UniProt P01375); experiment: analog potency on TNFa NF-kB signaling – cell-based, revised, SAR follow-up (AID 2337); format: functional
Chain of Tumor necrosis factor (P01375 whole entry, the tested form may be a part): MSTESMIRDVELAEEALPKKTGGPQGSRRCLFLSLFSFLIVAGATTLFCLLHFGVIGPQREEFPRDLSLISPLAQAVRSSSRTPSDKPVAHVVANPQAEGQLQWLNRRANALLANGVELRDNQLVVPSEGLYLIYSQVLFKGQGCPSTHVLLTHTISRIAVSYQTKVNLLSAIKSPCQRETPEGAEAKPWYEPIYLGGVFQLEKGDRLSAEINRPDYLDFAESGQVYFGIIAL

[12] = molecular target: T1, Nucleotide-binding oligomerization domain-containing protein 1 (Homo sapiens, UniProt Q9Y239); experiment: blockers of NOD1 pathway activity – revised, SAR follow-up (AID 2333); format: functional
T1 sequence (Q9Y239 whole entry): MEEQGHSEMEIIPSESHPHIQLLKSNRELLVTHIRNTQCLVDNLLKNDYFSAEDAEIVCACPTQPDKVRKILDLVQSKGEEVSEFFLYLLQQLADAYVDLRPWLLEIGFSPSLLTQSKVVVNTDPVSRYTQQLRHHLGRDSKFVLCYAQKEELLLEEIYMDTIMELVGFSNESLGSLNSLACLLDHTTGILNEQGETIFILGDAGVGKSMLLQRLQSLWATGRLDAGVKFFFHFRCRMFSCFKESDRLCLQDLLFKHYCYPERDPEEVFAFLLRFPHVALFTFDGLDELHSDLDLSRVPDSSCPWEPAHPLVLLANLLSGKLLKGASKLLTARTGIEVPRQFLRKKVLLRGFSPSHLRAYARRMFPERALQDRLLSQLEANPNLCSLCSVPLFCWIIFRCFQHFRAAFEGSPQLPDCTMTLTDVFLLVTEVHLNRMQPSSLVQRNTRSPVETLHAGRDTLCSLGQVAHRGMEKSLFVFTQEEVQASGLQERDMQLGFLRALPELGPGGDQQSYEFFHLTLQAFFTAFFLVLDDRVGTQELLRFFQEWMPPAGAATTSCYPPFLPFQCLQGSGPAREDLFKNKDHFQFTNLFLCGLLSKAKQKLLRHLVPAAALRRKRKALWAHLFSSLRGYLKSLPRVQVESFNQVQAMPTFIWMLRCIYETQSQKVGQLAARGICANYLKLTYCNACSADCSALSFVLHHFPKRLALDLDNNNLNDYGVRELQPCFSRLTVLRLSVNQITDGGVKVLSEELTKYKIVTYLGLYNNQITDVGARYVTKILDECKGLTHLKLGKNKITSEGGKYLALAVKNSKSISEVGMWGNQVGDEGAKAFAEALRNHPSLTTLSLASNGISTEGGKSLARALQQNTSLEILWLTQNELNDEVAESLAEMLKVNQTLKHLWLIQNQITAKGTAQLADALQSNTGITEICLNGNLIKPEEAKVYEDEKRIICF

[13] = molecular target: 26S proteasome non-ATPase regulatory subunit 14 (Homo sapiens, UniProt O00487); experiment: inhibition of proteasome subunit RPN11 – biochemical, fluorescence polarization, uHTS hits, confirmation (AID 602368); format: functional
[14] = molecular target: 72 kDa type IV collagenase (Homo sapiens, UniProt P08253); experiment: Dose Response validation of uHTS RPN11 inhibitor hits using a MMP-2 Fluorescence assay.; format: functional
Chain of 72 kDa type IV collagenase (P08253 whole entry, the tested form may be a part): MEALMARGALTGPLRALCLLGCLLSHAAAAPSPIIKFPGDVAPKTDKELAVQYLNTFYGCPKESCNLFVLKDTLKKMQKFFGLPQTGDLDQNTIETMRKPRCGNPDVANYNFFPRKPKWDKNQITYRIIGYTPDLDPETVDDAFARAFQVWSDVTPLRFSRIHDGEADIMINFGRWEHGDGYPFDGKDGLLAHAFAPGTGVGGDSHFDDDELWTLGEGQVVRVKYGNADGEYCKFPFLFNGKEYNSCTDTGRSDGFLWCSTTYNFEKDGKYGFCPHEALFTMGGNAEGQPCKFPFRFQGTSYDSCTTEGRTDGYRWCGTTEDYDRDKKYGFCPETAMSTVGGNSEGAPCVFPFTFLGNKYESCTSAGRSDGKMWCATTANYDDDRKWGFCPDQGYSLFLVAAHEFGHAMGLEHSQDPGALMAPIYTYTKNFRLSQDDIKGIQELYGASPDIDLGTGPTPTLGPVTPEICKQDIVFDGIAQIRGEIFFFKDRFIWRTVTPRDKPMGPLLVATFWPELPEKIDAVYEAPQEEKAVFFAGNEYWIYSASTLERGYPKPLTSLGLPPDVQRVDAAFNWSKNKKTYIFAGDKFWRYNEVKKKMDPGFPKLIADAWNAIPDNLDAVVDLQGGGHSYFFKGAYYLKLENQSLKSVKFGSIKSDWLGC

[15] = molecular target: T2, Carboxy-terminal domain RNA polymerase II polypeptide A small phosphatase 1 (Homo sapiens, UniProt Q9GZU7); experiment: CTDSP1 inhibitors, concentration-response, biochemical, absorbance readout, ultra-high-throughput screen actives (AID 540297); format: functional
T2 sequence (Q9GZU7 whole entry): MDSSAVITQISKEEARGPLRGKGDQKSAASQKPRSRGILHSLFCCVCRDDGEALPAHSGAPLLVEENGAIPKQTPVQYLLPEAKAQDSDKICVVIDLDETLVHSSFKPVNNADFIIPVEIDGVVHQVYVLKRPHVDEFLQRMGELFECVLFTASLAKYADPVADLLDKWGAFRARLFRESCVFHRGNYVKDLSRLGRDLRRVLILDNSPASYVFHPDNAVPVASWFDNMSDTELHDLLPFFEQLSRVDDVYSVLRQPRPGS

[16] = molecular target: T3, Voltage-gated N-type calcium channel alpha-1B subunit/Amyloid beta A4 precursor protein-binding family A member 1 (Homo sapiens, UniProt Q00975+Q02410); format: protein assay
T3 sequence (Q00975 whole entry): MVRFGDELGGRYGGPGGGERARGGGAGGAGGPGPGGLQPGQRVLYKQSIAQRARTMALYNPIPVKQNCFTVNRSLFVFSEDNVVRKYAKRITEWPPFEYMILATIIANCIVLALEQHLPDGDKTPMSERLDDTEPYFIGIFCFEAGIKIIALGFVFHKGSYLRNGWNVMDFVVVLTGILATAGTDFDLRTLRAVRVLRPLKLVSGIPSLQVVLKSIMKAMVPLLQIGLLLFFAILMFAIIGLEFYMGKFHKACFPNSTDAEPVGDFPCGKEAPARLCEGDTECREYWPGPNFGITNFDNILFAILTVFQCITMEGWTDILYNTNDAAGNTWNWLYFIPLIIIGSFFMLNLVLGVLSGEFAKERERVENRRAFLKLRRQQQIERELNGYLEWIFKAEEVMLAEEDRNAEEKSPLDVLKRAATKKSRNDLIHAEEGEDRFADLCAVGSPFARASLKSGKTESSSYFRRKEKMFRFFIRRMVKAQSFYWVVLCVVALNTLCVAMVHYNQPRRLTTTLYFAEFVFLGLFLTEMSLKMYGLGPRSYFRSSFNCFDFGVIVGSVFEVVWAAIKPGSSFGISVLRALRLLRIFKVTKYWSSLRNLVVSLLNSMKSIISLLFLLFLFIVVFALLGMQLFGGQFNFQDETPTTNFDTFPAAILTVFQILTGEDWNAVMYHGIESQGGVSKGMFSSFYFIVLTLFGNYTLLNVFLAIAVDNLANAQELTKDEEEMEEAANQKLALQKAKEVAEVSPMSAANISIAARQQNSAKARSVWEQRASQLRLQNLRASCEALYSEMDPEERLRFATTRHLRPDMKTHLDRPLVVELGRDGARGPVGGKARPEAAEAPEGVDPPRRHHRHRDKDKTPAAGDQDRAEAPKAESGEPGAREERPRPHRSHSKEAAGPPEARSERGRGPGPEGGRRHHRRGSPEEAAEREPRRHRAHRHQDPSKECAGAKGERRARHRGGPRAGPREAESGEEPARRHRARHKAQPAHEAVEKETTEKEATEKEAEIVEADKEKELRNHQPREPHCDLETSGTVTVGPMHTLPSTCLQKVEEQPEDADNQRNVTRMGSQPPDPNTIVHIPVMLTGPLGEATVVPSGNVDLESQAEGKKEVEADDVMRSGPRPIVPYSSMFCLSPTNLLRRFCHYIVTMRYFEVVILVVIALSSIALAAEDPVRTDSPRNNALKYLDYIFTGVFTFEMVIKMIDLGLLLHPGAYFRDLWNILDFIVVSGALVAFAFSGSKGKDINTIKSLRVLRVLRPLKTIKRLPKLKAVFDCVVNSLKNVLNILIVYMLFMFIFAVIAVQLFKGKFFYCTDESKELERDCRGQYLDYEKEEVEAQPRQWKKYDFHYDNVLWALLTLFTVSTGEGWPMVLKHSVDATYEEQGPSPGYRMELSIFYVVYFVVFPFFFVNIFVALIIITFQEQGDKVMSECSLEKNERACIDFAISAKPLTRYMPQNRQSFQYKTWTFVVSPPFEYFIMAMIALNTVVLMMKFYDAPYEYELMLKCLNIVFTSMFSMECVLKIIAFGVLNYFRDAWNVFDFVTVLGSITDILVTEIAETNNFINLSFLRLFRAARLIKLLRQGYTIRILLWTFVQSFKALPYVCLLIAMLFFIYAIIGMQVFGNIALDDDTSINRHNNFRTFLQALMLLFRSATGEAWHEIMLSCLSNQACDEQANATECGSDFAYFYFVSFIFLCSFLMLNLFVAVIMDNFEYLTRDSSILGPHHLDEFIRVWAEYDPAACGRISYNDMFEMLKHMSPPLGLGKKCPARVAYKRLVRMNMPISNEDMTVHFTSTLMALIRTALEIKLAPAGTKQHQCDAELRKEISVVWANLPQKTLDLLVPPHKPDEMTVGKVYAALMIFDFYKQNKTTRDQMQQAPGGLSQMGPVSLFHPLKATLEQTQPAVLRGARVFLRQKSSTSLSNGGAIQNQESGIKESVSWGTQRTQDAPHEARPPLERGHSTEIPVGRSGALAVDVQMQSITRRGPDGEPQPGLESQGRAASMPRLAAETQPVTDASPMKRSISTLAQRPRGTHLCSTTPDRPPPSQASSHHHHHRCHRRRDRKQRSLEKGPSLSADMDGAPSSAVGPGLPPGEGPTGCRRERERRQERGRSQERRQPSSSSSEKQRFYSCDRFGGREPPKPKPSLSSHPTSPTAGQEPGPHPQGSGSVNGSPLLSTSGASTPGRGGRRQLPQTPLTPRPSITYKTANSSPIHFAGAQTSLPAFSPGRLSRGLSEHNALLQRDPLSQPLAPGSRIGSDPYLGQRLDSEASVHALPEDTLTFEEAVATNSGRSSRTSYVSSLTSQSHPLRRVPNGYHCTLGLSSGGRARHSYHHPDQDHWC
T3 sequence (Q02410 whole entry): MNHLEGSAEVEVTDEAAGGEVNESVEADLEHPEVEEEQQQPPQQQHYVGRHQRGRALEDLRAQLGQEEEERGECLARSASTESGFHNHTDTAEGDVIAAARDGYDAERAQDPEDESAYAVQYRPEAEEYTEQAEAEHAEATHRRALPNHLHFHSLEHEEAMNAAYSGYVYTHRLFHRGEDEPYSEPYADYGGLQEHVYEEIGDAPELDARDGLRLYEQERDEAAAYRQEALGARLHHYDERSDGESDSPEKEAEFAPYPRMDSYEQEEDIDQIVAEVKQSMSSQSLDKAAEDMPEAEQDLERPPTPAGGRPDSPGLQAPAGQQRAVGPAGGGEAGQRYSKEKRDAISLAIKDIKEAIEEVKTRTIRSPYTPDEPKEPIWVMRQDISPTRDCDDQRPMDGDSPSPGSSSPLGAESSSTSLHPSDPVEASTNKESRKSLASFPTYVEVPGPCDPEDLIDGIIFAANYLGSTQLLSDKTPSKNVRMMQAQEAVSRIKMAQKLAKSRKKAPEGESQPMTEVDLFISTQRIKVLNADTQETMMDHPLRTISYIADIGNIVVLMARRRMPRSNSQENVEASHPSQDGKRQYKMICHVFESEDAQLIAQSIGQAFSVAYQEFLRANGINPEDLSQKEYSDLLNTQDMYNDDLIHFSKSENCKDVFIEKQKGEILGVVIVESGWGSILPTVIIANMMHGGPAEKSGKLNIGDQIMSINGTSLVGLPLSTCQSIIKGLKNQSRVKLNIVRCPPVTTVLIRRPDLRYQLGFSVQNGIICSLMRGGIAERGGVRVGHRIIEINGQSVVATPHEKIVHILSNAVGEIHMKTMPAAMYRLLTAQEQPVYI

[17] = molecular target: T4, SUMO-activating enzyme (Homo sapiens, UniProt Q9UBT2); experiment: blockers of UBC9-mediated SUMO conjugation – biochemical, AlphaScreen, SUMOylation inhibitor project, confirmation (AID 2018); format: functional
T4 sequence (Q9UBE0 whole entry): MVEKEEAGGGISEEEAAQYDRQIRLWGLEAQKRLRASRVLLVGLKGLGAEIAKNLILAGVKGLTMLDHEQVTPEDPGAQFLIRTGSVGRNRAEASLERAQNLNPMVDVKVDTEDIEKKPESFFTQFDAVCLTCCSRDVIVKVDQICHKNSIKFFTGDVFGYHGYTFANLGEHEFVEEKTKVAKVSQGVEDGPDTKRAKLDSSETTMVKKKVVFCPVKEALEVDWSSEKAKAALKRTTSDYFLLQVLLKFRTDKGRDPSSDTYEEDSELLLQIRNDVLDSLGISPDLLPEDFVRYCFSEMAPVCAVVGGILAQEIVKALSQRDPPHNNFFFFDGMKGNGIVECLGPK
T4 sequence (Q9UBT2 whole entry): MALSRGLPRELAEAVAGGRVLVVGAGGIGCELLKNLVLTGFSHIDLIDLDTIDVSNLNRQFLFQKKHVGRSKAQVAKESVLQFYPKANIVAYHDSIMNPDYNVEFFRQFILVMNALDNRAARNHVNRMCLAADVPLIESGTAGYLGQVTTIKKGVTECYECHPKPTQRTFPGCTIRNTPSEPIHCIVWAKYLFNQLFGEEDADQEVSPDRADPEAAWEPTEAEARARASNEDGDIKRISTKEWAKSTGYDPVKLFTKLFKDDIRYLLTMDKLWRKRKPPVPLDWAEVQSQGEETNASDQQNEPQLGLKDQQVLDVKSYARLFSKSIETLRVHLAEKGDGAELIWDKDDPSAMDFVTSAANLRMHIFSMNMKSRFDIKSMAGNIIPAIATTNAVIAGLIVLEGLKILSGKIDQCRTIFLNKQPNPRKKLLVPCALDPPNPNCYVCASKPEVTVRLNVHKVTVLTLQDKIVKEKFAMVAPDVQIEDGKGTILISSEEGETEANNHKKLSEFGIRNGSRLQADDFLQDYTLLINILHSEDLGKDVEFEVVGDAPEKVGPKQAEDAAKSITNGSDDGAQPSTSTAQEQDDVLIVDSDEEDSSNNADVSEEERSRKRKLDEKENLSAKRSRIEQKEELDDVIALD

[18] = molecular target: T3, Voltage-gated N-type calcium channel alpha-1B subunit/Amyloid beta A4 precursor protein-binding family A member 1; format: protein assay; remark: listed apart in the source
[19] = molecular target: Prothrombin (Bos taurus, UniProt P00735); experiment: thrombin protease inhibitors – biochemical, fluorescence polarization, uHTS hits, dose response (AID 602369); format: functional
[20] = molecular target: T5, Insulin-degrading enzyme (Homo sapiens, UniProt P14735); experiment: Dose Response: Fluorescence polarization-based cell-based high throughput dose response assay for inhibitors of insulin-degrading enzyme (IDE). [Related pubchem assays: 434962 (Primary screen (IDE inhibitors in singlicate)), 449730 (Counterscreen (Cytotoxicity in triplicate)), 435028 (Confirmation (IDE inhibitors in triplicate)), 434984 (Summary …; format: functional
T5 sequence (P14735 whole entry): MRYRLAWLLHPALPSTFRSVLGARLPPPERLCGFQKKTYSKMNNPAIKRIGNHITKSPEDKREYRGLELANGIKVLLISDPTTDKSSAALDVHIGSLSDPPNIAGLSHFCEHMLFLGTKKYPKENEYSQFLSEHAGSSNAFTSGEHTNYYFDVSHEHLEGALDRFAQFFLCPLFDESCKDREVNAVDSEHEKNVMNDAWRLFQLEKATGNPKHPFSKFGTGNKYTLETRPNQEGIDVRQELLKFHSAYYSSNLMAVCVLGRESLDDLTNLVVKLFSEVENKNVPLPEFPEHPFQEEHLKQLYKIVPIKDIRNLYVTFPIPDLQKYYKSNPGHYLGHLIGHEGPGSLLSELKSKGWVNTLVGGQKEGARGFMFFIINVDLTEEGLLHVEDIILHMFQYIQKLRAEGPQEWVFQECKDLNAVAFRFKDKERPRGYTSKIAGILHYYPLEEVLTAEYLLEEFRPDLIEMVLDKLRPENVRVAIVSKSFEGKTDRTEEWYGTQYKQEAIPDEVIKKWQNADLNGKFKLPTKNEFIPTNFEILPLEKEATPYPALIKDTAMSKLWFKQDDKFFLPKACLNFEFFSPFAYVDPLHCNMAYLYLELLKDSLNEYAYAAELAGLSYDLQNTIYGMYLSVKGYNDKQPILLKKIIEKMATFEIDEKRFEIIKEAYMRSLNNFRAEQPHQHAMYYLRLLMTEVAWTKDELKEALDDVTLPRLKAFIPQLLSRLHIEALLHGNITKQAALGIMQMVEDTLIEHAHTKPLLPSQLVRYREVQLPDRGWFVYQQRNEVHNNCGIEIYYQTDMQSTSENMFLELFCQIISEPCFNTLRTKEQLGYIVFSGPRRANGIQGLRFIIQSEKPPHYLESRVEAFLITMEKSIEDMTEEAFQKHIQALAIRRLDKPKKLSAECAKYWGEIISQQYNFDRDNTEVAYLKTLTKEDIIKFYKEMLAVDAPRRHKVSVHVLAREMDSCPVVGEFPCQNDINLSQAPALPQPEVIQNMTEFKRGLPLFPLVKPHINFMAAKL

[21] = Counterscreen for IDE inhibitors: Luminescence-based cell-based high throughput dose response assay to identify compounds that are cytotoxic to HEK cells. [Related pubchem assays: 434962 (Primary screen (IDE inhibitors in singlicate)), 449730 (Counterscreen (Cytotoxicity in triplicate)), 435028 (Confirmation (IDE inhibitors in triplicate)) …; format: functional; conditions: HEK293
[22] = molecular target: T4, SUMO-activating enzyme; experiment: blockers of SAE1/SAE2–UBC9 SUMO transfer – biochemical, HTRF, uHTS, primary screen (AID 2006); format: protein-complex assay

Compound: c1ccc(-n2cnnc2SCc2cn3cccnc3n2)cc1
AC50 [1]: 9.66 µM (active)
AC50 [2]: 19.4 µM (active)
AC50 [3]: 30.1 µM (active)

Compound: CC1CCc2c(sc(NC(=O)/C=C/c3cccs3)c2C(=O)O)C1 (stereo not drawn)
IC50 [4]: > 20 µM (inactive)
IC50 [5]: > 20 µM (inactive)
IC50 [6]: 16.7 µM (inactive)
IC50 [7]: > 20 µM (inactive)
EC50 [8]: > 20 µM (inactive)
EC50 [9]: 6.14 µM (active)
IC50 [10]: > 20 µM (inactive)
IC50 [11]: 9.63 µM (active)
IC50 [12]: 1.55 µM (active)

IC50 [13]: 8.12 µM (active)
IC50 [14]: > 100 µM (inactive)
IC50 [15]: 4.56 µM (active)
IC50 [16]: 4.83 µM (active)
IC50 [17]: 13.8 µM (active)
IC50 [18]: > 50 µM (inactive)
IC50 [19]: 51.4 µM (active)
Compound: NS(=O)(=O)c1ccc(NC(=O)c2ccc(-c3ccccc3)cc2)cc1

Compound: Cc1cccc(C(=O)Nc2ccnc(-c3ccncc3)n2)c1
IC50 [20]: 7.39 µM (active)
IC50 [21]: 22.9 µM (not active)

Compound: O=C(O)c1ccc2c(c1)C1C(Cl)C(Sc3ccccc3[N+](=O)[O-])CC1C(c1cccc([N+](=O)[O-])c1)N2 (stereo not drawn)
IC50 [22]: 23.6 µM (active)
IC50 [17]: 2.26 µM (active)
